Reference: ChEMBL document CHEMBL1201862, “PubChem BioAssay data set” (2004)
“And” between values parts separate entries of the source, which are not always exact repeats. Equal entries are not always repeated.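 A five-concentration, 48-hour dose response in 96-well plates underlies each endpoint, interpolated linearly between surrounding concentrations. The concentration for 50% growth inhibition is given as GI50.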 The source made the active and inactive calls. No stated cut-off is given here; in the data, active = GI50 up to about 1.1 µM and inactive = higher.

Key:
Test in all cases: inhibition of tumour cell growth, NCI panel, 48 h
MDA-N = tested on: MDA-N
SK-MEL-28 = tested on: SK-MEL-28
A549 = tested on: A549
HOP-62 = tested on: HOP-62
HT-29 = tested on: HT-29
A498 = tested on: A498
HCT-116 = tested on: HCT-116
NCI-H23 = tested on: NCI-H23
IGROV-1 = tested on: IGROV-1
SNB-19 = tested on: SNB-19
NCI/ADR-RES = tested on: NCI/ADR-RES
U-251 = tested on: U-251
TK-10 = tested on: TK-10
CCRF-CEM = tested on: CCRF-CEM
NCI-H522 = tested on: NCI-H522
LOX IMVI = tested on: LOX IMVI
SN12C = tested on: SN12C
OVCAR-8 = tested on: OVCAR-8
BT-549 = tested on: BT-549
SNB-75 = tested on: SNB-75

Measured: GI50

NC(Cc1ccccc1)P(=O)(O)O (stereo not given)
inactive: MDA-N > 100 µM | SK-MEL-28 > 100 µM | A549 > 100 µM | HOP-62 > 100 µM | HT-29 > 100 µM | A498 > 100 µM | HCT-116 > 100 µM | NCI-H23 > 100 µM | IGROV-1 > 100 µM | SNB-19 > 100 µM | NCI/ADR-RES > 100 µM | U-251 > 100 µM | TK-10 > 100 µM | CCRF-CEM > 100 µM | NCI-H522 > 100 µM | LOX IMVI > 100 µM | SN12C > 100 µM | OVCAR-8 > 100 µM | BT-549 > 100 µM

CCCC(C)NC(=O)c1ccc(N(C)Cc2cnc3nc(N)nc(N)c3n2)cc1 (stereo not given)
inactive: MDA-N 14.6 µM | SK-MEL-28 18.5 µM | HOP-62 29.5 µM | HT-29 17.6 µM | A498 69 µM | HCT-116 5.16 µM | NCI-H23 29.4 µM | IGROV-1 17.7 µM | SNB-19 22.6 µM | SNB-75 24.4 µM | NCI/ADR-RES > 100 µM | U-251 14.8 µM | TK-10 31.3 µM | CCRF-CEM 26.2 µM | LOX IMVI 5.42 µM | SN12C 44.6 µM | OVCAR-8 14.9 µM | BT-549 15.5 µM

CCC1(c2ccc(OC)c(OC)c2)CCN(S(=O)(=O)c2ccc(C)cc2)C1 (stereo not given)
inactive: MDA-N > 100 µM | SK-MEL-28 > 10 µM | A549 62.8 µM | HOP-62 > 100 µM | HT-29 > 100 µM | HCT-116 57.4 µM | NCI-H23 > 100 µM | IGROV-1 > 100 µM | SNB-19 > 100 µM | SNB-75 > 100 µM | NCI/ADR-RES 72.8 µM | U-251 > 100 µM | TK-10 > 100 µM | CCRF-CEM > 100 µM | NCI-H522 68.5 µM | LOX IMVI > 100 µM | SN12C > 100 µM | BT-549 > 100 µM

CC1(C)C(=O)C2(C#N)CCC1C2 (stereo not given)
inactive: MDA-N > 100 µM | SK-MEL-28 > 100 µM | A549 > 100 µM | HOP-62 > 100 µM | HT-29 > 100 µM | A498 > 100 µM | HCT-116 > 100 µM | NCI-H23 > 100 µM | IGROV-1 > 100 µM | SNB-19 > 100 µM | SNB-75 > 84.7 µM | NCI/ADR-RES > 100 µM | U-251 > 100 µM | TK-10 > 100 µM | CCRF-CEM > 100 µM | LOX IMVI > 100 µM | SN12C > 100 µM | OVCAR-8 > 100 µM | BT-549 > 100 µM

NCCCCCNOCCCN
inactive: MDA-N > 100 µM | SK-MEL-28 > 100 µM | A549 > 100 µM | HOP-62 > 100 µM | HT-29 > 100 µM | HCT-116 > 100 µM | NCI-H23 > 100 µM | IGROV-1 > 100 µM | SNB-19 > 100 µM | SNB-75 63.1 µM | NCI/ADR-RES > 100 µM | U-251 > 100 µM | TK-10 > 100 µM | CCRF-CEM > 100 µM | NCI-H522 > 100 µM | LOX IMVI > 100 µM | SN12C > 100 µM | OVCAR-8 > 100 µM | BT-549 > 100 µM

O=C1c2ccccc2C(=O)N1c1ccc(OCCN2CCCCC2)cc1
inactive: MDA-N > 100 µM | SK-MEL-28 > 100 µM | A549 > 100 µM | HOP-62 > 100 µM | HT-29 > 100 µM | A498 > 100 µM | HCT-116 > 100 µM | NCI-H23 > 100 µM | IGROV-1 > 100 µM | SNB-19 > 100 µM | NCI/ADR-RES > 100 µM | U-251 > 100 µM | TK-10 > 100 µM | CCRF-CEM > 100 µM | NCI-H522 > 100 µM | LOX IMVI > 100 µM | SN12C > 100 µM | OVCAR-8 > 100 µM | BT-549 > 100 µM

COCC1OC(Sc2ccccc2)C(O)C(OC)C1OC (stereo not given)
inactive: MDA-N > 100 µM | SK-MEL-28 > 100 µM | A549 > 100 µM | HOP-62 > 100 µM | HT-29 > 100 µM | HCT-116 > 100 µM | NCI-H23 > 100 µM | IGROV-1 > 100 µM | SNB-19 > 100 µM | NCI/ADR-RES > 100 µM | U-251 > 100 µM | TK-10 > 100 µM | CCRF-CEM > 100 µM and 52.4 µM | NCI-H522 > 100 µM | LOX IMVI > 100 µM | SN12C > 100 µM | OVCAR-8 > 100 µM | BT-549 > 100 µM
